This note sets out measurements from ChEMBL document CHEMBL1201862, “PubChem BioAssay data set” (2004).

Active and inactive are the calls of the source.

Assay [1] concerns the target Photoreceptor-specific nuclear receptor (Homo sapiens, UniProt Q9Y5X4). Type of assay: functional.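 Also: potency for compounds that break the NR2E3 corepressor complex and count as activators.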
The target in assay [2] is Peroxisome proliferator-activated receptor gamma/Nuclear receptor corepressor 2 (Homo sapiens, UniProt P37231+Q9Y618). Format: functional.
The target in the next assay is Melanocortin receptor 4 (Homo sapiens, UniProt P32245). Briefly: MC4R antagonist potency on cAMP, dose response, cell-based, TR-FRET, biased antagonists (AID 602298).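 Also: antagonist potency against agonist-stimulated cAMP production.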 Format: functional.
Assay [3] can be described thus: nonselective inhibitors of cellular cAMP signaling, dose response, counter-screen for MC4R biased antagonist project, cell-based, TR-FRET cAMP detection (AID 602305).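 Also: U2OS cells stimulated with forskolin near its EC80 as the cAMP inducer; potency is for inhibition of forskolin-stimulated cAMP signaling.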 Format: functional. For orientation: A counterscreen serves to expose hits that act by an unwanted route or on another target.
For the next assay, the target named is Cytochrome P450 3A4 (Homo sapiens, UniProt P08684). The following applies: Potency.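 Also: confirmatory qHTS run detecting inhibitors and substrates of CYP3A4.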
The subject of a further assay is Salmon testes DNA. Briefly: DNA intercalators displacing acridine orange, dose response, artefact control for KSHV LANA DNA-binding inhibitor project, biochemical, fluorescence polarization, cherry-picked samples, set 2 (AID 504727). Also noted: species or system Salmonidae. (Fluorescence polarisation rises when a labelled molecule tumbles more slowly, as on binding a larger partner.)

The target in a further assay is T1, ORF 73 (Human herpesvirus 8, UniProt O40947).
T1 sequence (O40947 whole entry): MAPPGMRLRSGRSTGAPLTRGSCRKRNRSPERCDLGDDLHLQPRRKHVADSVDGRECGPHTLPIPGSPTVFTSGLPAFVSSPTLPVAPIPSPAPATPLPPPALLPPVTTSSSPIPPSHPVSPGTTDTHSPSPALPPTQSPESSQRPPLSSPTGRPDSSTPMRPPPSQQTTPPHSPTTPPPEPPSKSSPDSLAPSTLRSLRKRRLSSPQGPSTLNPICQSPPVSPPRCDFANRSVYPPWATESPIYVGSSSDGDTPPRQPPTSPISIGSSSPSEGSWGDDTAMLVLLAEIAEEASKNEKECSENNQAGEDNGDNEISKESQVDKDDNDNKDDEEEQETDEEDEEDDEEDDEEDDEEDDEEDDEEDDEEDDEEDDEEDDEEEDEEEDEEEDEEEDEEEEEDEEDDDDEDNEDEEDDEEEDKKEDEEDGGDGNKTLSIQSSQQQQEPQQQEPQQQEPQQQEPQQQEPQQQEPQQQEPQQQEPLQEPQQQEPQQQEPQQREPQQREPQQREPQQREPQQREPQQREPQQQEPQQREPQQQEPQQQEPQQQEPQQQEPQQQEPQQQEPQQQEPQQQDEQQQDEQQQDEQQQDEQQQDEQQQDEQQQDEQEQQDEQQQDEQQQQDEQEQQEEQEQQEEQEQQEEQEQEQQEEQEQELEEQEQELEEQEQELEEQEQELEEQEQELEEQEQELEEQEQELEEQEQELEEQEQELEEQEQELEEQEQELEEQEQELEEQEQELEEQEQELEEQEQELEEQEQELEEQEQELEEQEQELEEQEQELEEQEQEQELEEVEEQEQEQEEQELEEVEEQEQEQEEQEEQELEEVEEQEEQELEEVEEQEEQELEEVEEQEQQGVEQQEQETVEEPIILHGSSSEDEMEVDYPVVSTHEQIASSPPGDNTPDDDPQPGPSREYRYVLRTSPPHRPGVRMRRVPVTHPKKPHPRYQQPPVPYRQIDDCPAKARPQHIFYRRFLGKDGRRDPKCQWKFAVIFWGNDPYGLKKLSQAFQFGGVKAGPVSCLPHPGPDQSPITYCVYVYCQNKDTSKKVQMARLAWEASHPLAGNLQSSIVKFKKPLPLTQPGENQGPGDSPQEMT
The assay is described as follows: inhibitors of C-LANA binding to LBS DNA, dose response, biochemical, fluorescence polarization, cherry-picked samples (AID 504725).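 Also: fluorescence polarization of a labeled DNA duplex reporting LANA DNA binding; potency is for inhibitors that block LANA binding to the DNA.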 Also noted: species or system Human gammaherpesvirus 8.

The target in assay [4] is Dual specificity protein phosphatase 3 (Homo sapiens, UniProt P51452). Briefly: VHR1 inhibitor Ki determination, SAR follow-up, biochemical, colorimetric (AID 2004).
Assay [5] has as its target T2, Heat shock factor protein 1 (Mus musculus, UniProt P38532).
T2 sequence (P38532 whole entry): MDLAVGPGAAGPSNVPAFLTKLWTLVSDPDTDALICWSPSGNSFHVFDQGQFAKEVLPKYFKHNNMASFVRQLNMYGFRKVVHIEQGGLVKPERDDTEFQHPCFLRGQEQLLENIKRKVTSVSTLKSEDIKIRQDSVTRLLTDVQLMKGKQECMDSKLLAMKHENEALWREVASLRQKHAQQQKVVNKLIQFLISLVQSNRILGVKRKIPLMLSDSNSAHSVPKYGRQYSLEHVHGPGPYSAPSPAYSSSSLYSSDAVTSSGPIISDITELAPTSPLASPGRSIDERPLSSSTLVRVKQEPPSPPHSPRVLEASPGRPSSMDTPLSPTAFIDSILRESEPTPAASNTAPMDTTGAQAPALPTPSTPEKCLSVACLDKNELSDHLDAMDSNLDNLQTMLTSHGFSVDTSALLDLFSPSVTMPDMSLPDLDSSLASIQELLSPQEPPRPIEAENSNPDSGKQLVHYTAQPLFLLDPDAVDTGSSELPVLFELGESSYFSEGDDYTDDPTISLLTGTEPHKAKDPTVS
Briefly: inhibition of MG132-induced HSE-luciferase signal, confirmation, cell-based, NIH3T3, luminescence, dose retest (AID 2382).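 Also: NIH3T3 fibroblasts with HSF1-driven luciferase reporter stressed by proteasome inhibitor MG132; luminescence from HSF1-driven luciferase expression after 8 hours of MG132 stress.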 Format: functional.

Assay [6] can be described thus: polyadenylation inhibitors in yeast reporter, dose response, luminescence, S. cerevisiae SKY197-pL101 (AID 2525). Type of assay: functional, cell-based.
Assay [7] is described as follows: Luminescence Cell-Based Dose Confirmation HTS to Identify Inhibitors of Polyadenylation. Format: functional.
Assay [8] addresses Eukaryotic translation initiation factor 4H (Homo sapiens, UniProt Q15056). The assay is described as follows: human eIF4H binding inhibitors, primary screen, translation initiation inhibitor project, biochemical, uHTS, fluorescence polarization (AID 2012).
Assay [9] is described as follows: inhibitors of intracellular T. cruzi replication, confirmation, NIH3T3 host cells, beta-gal luminescence (AID 2044).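 Also: intracellular parasites grown in NIH/3T3 mouse fibroblasts as host cells; luminescent beta-galactosidase reporter signal from transgenic T. cruzi replicating inside host cells; inhibitors lower the luminescence signal.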 Type of assay: functional, cell-based.
Assay [10] is described as follows: cytotoxicity toward NIH3T3 fibroblasts, dose response, counter-screen, cell-based, ATP luminescence, mouse fibroblasts (AID 2010).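 Also: cells exposed to compound for about 90 hours before reading.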 Format: functional.
The target of assay [11] is Polyadenylate-binding protein 1 (Homo sapiens, UniProt P11940). Briefly: PABP poly(A) RNA binding inhibitors, primary screen, biochemical, fluorescence polarization, uHTS (AID 2014).
The target in assay [12] is Metabotropic glutamate receptor 4 (Rattus norvegicus, UniProt P31423). The assay is described as follows: Modulation of the Metabotropic Glutamate Receptor mGluR4: Rat PAM Potency. [Related pubchem assays (depositor defined):AID2437, AID2807]. Format: functional.
For another assay, the target named is Cytochrome P450 2C19 (Homo sapiens, UniProt P33261). The assay is described as follows: qHTS Assay for Inhibitors and Substrates of Cytochrome P450 2C19. [Related pubchem assays: 410 ]. Type of assay: ADME. The following applies: read-out: Potency. For orientation: Quantitative high-throughput screening tests each substance at several concentrations.
The target of a further assay is Cytochrome P450 2C9 (Homo sapiens, UniProt P11712). The following applies: Potency.
In another assay the test system is Trypanosoma cruzi. Briefly: growth inhibition of intracellular Trypanosoma cruzi, dose response, cell-based, plate reader, dry powder, set 3 (AID 493197). Type of assay: functional.
Assay [13] concerns the target Melanin-concentrating hormone receptor 1 (Homo sapiens, UniProt Q99705). Briefly: Late-stage fluorescence-based counterscreen for antagonists of the G-protein coupled receptor 7 (GPR7): cell-based dose response assay to identify antagonists of the melanin-concentrating hormone receptor 1 (MCHR1). [Related pubchem assays (depositor defined):AID1861, AID1880, AID1952, AID2148, AID2251, AID2257, AID485339]. Format: functional.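 Also: stimulated with 30 nM MCH peptide agonist.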

Assay [14] deals with T3, Eukaryotic translation initiation factor 2-alpha kinase 3 (Homo sapiens, UniProt Q9NZJ5). The assay is described as follows: Dose response cell-based high-throughput screening assay to measure PERK inhibition. [Related pubchem assays: 1416 ]. Format: functional.
The target in assay [15] is T3, Eukaryotic translation initiation factor 2-alpha kinase 3. Briefly: Counterscreen assay for PERK inhibitors: Dose response cell-based high throughput screening assay to measure inhibition of PERK at 6 hours. [Related pubchem assays: 1522, 1416 ]. Type of assay: functional.
Assay [16] concerns the target Lysosomal acid glucosylceramidase (Homo sapiens, UniProt P04062). The assay is described as follows: Dose response cell-based high throughput screening assay to identify enhancers of beta-glucosidase activity. [Related pubchem assays: 784 ]. Format: functional.
For the next assay, the target named is Protein Rev (Human immunodeficiency virus type 1 group M subtype B (isolate HXB2)(HIV-1), UniProt P04618). The assay is described as follows: inhibitors of Rev binding to RRE RNA, dose response, biochemical, fluorescence polarization, HIV-1 (AID 434976). Also noted: species or system Human immunodeficiency virus 1.
In assay [17] the target is Female germline-specific tumor suppressor gld-1 (Caenorhabditis elegans, UniProt Q17339). Briefly: inhibitors of GLD-1 binding to TGE RNA, dose response, biochemical, fluorescence polarization, C. elegans (AID 2802).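 Also: fluorescence polarization of labeled TGE RNA bound by purified gld-1 protein.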
Assay [18] addresses T4, RNA-binding protein pos-1 (Caenorhabditis elegans, UniProt G5EF15).
T4 sequence (G5EF15 whole entry): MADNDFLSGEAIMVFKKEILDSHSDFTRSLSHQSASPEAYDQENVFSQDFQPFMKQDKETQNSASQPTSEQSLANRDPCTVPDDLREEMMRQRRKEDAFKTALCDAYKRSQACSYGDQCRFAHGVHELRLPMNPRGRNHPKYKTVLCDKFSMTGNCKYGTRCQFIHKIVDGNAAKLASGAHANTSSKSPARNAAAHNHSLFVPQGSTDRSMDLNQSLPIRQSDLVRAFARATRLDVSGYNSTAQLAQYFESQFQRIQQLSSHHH
Briefly: inhibitors of POS-1/mex-3 RNA binding, dose response, biochemical, fluorescence polarization (AID 1964).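 Also: purified POS-1 fused to maltose binding protein made in E. coli; potency of compounds blocking POS-1 binding to fluorescent RNA.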

The target of assay [19] is T5, Zinc finger protein mex-5 (Caenorhabditis elegans, UniProt Q9XUB2).
T5 sequence (Q9XUB2 whole entry): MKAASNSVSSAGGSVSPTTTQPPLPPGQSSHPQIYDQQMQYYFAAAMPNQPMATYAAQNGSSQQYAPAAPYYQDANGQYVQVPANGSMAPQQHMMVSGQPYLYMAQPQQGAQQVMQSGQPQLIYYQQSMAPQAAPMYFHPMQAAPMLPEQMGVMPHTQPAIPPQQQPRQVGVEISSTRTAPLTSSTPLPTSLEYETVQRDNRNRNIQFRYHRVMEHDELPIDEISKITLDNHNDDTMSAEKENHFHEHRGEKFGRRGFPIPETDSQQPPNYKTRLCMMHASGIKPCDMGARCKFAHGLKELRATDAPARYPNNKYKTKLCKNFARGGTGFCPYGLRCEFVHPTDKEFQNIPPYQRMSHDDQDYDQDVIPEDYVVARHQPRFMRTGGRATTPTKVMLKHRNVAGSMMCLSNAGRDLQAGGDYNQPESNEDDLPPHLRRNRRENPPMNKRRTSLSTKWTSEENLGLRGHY
Briefly: MEX-5/TCR-2 RNA interaction inhibitors, dose response, biochemical, C. elegans, fluorescence polarization (AID 1960).

T3 sequence (Q9NZJ5 whole entry): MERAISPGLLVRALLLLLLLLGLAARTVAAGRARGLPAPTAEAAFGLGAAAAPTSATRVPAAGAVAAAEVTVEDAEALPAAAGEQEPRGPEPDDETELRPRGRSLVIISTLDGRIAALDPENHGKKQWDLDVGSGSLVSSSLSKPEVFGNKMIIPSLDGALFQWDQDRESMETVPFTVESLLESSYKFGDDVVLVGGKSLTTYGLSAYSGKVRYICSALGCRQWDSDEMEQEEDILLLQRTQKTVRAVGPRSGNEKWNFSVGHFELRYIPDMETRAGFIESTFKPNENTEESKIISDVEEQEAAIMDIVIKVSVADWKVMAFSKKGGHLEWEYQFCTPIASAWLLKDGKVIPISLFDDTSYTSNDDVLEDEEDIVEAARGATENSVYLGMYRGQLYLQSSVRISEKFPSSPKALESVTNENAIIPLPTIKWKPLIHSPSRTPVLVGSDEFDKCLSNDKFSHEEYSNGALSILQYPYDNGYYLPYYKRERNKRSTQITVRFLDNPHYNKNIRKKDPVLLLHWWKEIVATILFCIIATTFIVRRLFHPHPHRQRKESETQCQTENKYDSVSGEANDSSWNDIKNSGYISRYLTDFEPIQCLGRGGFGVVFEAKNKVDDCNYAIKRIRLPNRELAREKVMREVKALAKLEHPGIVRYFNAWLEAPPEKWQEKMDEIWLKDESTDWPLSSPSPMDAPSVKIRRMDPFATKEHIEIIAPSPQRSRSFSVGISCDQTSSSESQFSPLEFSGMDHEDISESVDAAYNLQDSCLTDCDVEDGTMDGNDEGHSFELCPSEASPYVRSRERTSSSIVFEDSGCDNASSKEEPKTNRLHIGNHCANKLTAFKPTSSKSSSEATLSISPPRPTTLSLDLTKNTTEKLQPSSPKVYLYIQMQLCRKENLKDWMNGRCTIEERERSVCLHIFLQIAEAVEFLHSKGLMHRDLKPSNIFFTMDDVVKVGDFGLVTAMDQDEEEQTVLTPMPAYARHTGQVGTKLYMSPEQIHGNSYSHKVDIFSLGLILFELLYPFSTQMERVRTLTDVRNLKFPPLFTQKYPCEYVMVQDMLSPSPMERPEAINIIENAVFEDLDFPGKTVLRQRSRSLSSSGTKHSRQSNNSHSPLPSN
Chain of Cytochrome P450 2C19 (P33261 whole entry): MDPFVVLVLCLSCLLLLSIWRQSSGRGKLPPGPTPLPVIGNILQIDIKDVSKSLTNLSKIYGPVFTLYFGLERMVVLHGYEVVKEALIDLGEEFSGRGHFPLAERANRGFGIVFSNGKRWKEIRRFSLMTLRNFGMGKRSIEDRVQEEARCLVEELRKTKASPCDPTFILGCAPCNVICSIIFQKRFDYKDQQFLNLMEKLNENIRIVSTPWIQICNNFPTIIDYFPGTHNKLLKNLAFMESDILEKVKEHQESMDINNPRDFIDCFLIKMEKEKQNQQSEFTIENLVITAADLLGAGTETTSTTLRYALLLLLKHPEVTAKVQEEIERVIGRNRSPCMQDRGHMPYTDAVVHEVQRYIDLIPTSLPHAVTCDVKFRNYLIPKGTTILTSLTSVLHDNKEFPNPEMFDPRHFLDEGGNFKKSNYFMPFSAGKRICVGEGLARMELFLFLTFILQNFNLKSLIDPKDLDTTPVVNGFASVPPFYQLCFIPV
Chain of Melanin-concentrating hormone receptor 1 (Q99705 whole entry): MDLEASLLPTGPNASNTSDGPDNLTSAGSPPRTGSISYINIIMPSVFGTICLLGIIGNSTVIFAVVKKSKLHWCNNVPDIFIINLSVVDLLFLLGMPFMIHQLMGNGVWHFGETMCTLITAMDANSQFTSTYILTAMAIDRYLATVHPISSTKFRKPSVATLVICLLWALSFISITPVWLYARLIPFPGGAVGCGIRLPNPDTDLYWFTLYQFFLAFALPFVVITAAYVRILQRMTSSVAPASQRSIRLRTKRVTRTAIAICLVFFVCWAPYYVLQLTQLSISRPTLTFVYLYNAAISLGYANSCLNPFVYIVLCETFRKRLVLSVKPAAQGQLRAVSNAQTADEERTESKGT
Chain of Polyadenylate-binding protein 1 (P11940 whole entry): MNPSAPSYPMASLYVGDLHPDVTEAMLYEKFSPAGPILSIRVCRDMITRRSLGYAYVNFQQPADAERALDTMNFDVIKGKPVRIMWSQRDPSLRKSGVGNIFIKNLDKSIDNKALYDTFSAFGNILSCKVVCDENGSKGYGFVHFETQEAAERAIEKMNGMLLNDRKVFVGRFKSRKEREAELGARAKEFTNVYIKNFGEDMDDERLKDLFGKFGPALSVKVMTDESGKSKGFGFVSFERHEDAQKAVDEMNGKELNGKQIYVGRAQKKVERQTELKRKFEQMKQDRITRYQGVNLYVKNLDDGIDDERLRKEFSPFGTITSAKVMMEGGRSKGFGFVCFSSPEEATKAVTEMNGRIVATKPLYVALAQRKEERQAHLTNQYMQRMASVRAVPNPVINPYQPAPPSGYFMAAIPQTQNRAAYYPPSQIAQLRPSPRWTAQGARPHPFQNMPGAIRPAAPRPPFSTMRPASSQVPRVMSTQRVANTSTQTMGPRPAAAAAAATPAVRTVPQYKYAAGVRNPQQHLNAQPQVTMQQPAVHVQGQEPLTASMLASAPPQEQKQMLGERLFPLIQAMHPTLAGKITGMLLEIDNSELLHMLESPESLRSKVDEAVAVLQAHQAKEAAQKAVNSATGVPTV
Chain of Melanocortin receptor 4 (P32245 whole entry): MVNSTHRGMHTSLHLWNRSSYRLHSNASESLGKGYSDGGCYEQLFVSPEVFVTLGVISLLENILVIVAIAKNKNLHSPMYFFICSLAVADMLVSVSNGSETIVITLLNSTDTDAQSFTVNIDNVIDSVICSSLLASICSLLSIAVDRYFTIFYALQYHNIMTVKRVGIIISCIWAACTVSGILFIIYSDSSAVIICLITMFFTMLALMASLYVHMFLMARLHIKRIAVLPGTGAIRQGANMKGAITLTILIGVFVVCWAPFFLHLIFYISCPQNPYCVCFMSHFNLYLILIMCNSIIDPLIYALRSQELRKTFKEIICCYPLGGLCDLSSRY
Chain of Cytochrome P450 2C9 (P11712 whole entry): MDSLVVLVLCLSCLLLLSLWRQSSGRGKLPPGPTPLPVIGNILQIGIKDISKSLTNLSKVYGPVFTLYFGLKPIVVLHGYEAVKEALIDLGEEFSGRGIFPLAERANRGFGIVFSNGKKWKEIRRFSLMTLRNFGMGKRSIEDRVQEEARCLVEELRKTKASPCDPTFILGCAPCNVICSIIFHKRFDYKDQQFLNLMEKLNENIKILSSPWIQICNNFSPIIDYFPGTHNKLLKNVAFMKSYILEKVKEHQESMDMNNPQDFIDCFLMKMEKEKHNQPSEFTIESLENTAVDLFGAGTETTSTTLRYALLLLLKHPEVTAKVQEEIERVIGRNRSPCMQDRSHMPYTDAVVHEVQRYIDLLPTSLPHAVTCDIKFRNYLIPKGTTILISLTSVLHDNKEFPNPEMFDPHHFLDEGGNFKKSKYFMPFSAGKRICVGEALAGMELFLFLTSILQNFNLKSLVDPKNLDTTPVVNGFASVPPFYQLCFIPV
Chain of Protein Rev (P04618 whole entry): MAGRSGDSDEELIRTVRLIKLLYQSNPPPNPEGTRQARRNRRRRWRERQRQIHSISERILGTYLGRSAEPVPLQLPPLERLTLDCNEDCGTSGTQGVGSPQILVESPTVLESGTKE
Chain of Lysosomal acid glucosylceramidase (P04062 whole entry): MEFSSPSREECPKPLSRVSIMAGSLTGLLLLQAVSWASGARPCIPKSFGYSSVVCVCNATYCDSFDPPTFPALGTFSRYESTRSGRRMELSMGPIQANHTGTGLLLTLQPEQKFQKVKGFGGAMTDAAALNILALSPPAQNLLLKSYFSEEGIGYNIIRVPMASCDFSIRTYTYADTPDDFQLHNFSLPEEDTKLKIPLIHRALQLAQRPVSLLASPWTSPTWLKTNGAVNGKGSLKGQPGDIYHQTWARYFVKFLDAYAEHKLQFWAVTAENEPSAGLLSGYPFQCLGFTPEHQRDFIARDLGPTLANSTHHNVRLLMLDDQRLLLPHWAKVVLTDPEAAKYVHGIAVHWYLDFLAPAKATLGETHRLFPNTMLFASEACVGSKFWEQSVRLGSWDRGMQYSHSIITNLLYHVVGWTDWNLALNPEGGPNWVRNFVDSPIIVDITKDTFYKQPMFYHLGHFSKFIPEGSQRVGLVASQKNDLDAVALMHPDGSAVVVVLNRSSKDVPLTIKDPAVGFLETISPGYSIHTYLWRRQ
Chain of Cytochrome P450 3A4 (P08684 whole entry): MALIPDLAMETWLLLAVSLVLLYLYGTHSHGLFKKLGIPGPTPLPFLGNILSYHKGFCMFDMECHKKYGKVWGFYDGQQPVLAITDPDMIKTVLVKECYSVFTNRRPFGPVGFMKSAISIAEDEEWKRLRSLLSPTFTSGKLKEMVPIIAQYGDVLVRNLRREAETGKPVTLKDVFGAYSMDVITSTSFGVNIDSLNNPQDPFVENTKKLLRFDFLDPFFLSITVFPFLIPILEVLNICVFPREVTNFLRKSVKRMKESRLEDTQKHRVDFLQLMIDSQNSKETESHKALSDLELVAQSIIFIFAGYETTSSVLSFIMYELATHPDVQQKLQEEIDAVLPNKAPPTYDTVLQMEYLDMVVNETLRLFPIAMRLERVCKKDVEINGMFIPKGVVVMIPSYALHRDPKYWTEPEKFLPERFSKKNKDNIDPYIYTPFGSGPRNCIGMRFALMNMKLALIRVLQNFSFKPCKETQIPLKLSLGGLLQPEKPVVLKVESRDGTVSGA

As usually defined, the IC50 is the midpoint of a concentration-inhibition curve. For `O=C(O)c1cc(-c2ccc3c(c2)OCO3)nc2ccc(Br)cc12`, the IC50 was > 39.8 µM (not active) in assay [1], 1.76 µM (active) in assay [2], 35.7 µM (inactive) at Melanocortin receptor 4 and > 64.6 µM (inactive) in [3].

Take `COc1ccc(-c2coc3c(OC)c(OC)cc(O)c3c2=O)cc1` [ISOTECTORIGENIN, 7-METHYL ETHER]: on Cytochrome P450 3A4, the AC50 is 39.8 µM (inconclusive).

In the case of `COC(=O)c1cc(N2CCN(C)CC2)nc2ccccc12`, the AC50 is 137 µM (active) in the assay with Salmon testes DNA and 59.9 µM (active) at ORF 73.

As a reminder, the Ki is a dissociation constant, usually derived from enzyme kinetics or from competition with a known ligand. In general, EC50 refers to the concentration needed to bring the measured effect to its halfway point. Regarding `Cc1ccc(S(=O)(=O)N2CCN(C(=O)c3cccc(F)c3)CC2)cc1`, the Ki in [4] is 39.4 µM (inactive). Besides, the EC50 in assay [5] was > 195 µM (not active).

On to `N#CC1(C#N)C2=C(CCCC2)NC(c2ccccc2)C1(C#N)C#N` (configuration not stated), for which the EC50 in assay [6] was 3.77 µM (active); in assay [7] it was 7.92 µM (active).

Take `COc1ccc(N=C(C)N(C)CCNS(=O)(=O)c2ccc(Cl)cc2)cc1Cl`: the IC50 is > 100 µM (inactive) in [8] and 5.82 µM (active) in assay [11]. In addition, the concentration giving a half-maximal response (EC50) in assay [9] is 0.271 µM (active); in [10], > 60 µM (not active).

Turning to `O=C(Nc1ccc(N2C(=O)c3cccc(Cl)c3C2=O)c(Cl)c1)c1ccccn1`, the EC50 in assay [12] was 0.03 µM (active).

For `CCCC[C@@H]1C[C@H]1C(NP(=O)(c1ccccc1)c1ccccc1)c1ccc(Cl)cc1` (some centres not stated), the AC50 on Cytochrome P450 2C19 was 10 µM (inconclusive); on Cytochrome P450 2C9, 15.8 µM (inconclusive).

`CN(Cc1ccccc1)C(=O)C1CCCN(Cc2ccc([N+](=O)[O-])cc2)C1` (configuration not stated): the AC50 in the assay on Trypanosoma cruzi was 7.63 µM (active).

On to `Cc1ccc(-n2ncc(Cl)c(Oc3ccc(F)cc3F)c2=O)cc1`, for which, in assay [13], the IC50 was 17.4 µM (inactive).

For the compound `O=C(NNc1ccccc1F)c1ccccc1`, the EC50 in [14] and in assay [15] was > 55.7 µM (not active) throughout.

`CCC(C)n1cnc2c(c1=O)c1nc3ccccc3nc1n2Cc1ccc2c(c1)OCO2` (configuration not stated): the EC50 in assay [16] is recorded as > 10 µM (not active).

`O=C1CS/C(=C\[N+](=O)[O-])N1c1ccccc1`: the IC50 at Protein Rev was 3.03 µM (active); in [17], > 59.6 µM (inactive). Also, the results for the EC50 in [18] and in assay [19] were > 300 µM (not active) and 190 µM (active), respectively.
